Measurements taken from PubChem BioAssay AID1963432 (Molecular Pharmacology Branch, DTP, NCI, 2024).

Tested on: SYO-1 complex spheroid growth, percent test/control
Experiment: Anticancer human tumor SYO-1 cell line growth inhibition [Asc];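 note: compound exposure lasted 7 days after spheroids grew 3 days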;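 for viability, T/C: 100% = DMSO vehicle control viability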
Settings: for IC50: curve of first compound; for viability, T/C: stronger effect = lower value; active = viability on the fitted dose curve at most 10% of control; inactive = the rest
Protocol: Multicellular complex tumor spheroid response to apoptosis pathway targeting inhibitors Alrizomadlin, Pelcitoclax, and Dasminapant in combination with a variety of drugs and investigational agents in selected tumor cell lines
The MDM2 inhibitor alrizomadlin, the Bcl-2/Bcl-xL inhibitor pelcitoclax, and the IAPs inhibitor dasminapant were evaluated both individually and in combination with standard of care and investigational anticancer small molecules within a complex spheroid model of solid tumors. . Complex spheroids include a stromal component modeled by human endothelial cells (HUVEC) and fibroblasts modeled by human mesenchymal stem cells (MSCs). The concentration ranges selected for each drug and investigational agent were based upon clinically achievable concentrations if the clinical Cmax of the agent was known.
Compounds. The drugs and investigational agents: alrizomadlin (APG-115; NSC831270), pelcitoclax (APG-1252; NSC835773), dasminapant (APG-1387;NSC834197), TAK-243 (NSC785004), copanlisib (NSC809693), olaparib (NSC753686), talazoparib (NSC767125), cobimetinib (NSC 768068), eltanexor (KPT-8602, NSC 794443), abemaciclib (NSC 768073), sotorasib (NSC818433), adagrasib (NSC 831453), MRTX-1133 (NSC 836407), Iadademestat (ORY1001, NSC 806812), and RMC-4630 (NSC839698), were obtained from the NCI Developmental Therapeutics Program Chemical Repository. The FDA-approved anticancer drug set is available from the Developmental Therapeutics Program at https://dtp.cancer.gov/organization/dscb/obtaining/available plates.htm. […] The stock solutions were prepared in dimethyl sulfoxide (DMSO, Sigma-Aldrich, St. Louis, MO, cat. D2650) at 800-fold the tested concentration and stored at -70 degrees C prior to their use. All drugs and investigational agents were tested over a range starting from a high concentration at or near the clinical Cmax and decreasing in half-log increments. If the clinical Cmax for an agent had not been determined, the highest concentration tested was 10 microM.
The patient-derived cancer (PDC) cell lines include five colon adenocarcinomas: 186277-243-T-J2-PDC, 616215-338-R-J1-PDC, 439559-082-T-J2-PDC, 463943-066-T-J2-PDC, and 519858-162-T-J1-PDC; three pancreatic carcinomas: 323965-272-R-J2-PDC, 521955-158-R6-J3-PDC, and 521955-158-R2-J5-PDC; two uterine sarcomas: 327498-152-R-J2-PDC and 993429-296-R-J1-PDC; two rhabdomyosarcomas: 755483-174-R-J1-PDC and 772245-204-R-J1-PDC; two soft tissue sarcomas: 126254-015-R-J1-PDC and 494315-158-R-J1-PDC; two malignant fibrous histiocytomas: 317291-083-R-J1-PDC and 596521-263-R-J1-PDC; two breast carcinomas: 171881-019-R-J1-PDC and 885512-296-R-J2-PDC; and one ovarian carcinoma: 6556581-035-R-J-PDC were obtained from the NCI PDMR, (https://pdmr.cancer.gov). The established cell lines HSSY-2 synovial sarcoma (RRID:CVCL 8719), SYO-1 synovial sarcoma (RRID:CVCL_7146), MPNST malignant peripheral neural sheath tumor were obtained from the Sloan Kettering Institute. The following established cell lines were purchased from the American Type Culture Collection (ATCC, Manassas, VA), Sor the received from the NCI repository:, PANC-1 pancreatic carcinoma (CRL-1469, RRID:CVCL_0480), OVCAR-5 ovarian carcinoma (RRID:CVCL_1628), OVCAR-8 ovarian carcinoma (RRID:CVCL_1629), , MCF-7 breast carcinoma (CRL-12584, RRID:CVCL_0031), MDA-MB-231 breast carcinoma (CRL-12532, RRID:CVCL_0062), NCI-H1876 small cell lung carcinoma (CRL-5902, RRID:CVCL_1503), NCI-H510A small cell lung carcinoma (HTB-184, RRID:CVCL_1565), NCI-H1417 (CRL-5869, RRID:CVCL_1469), and NCI-H196 small cell lung carcinoma (CRL-5823, RRID:CVCL_1509). Dr. Peter Houghton (Greehey Children's Cancer Research Institute, University of Texas Health Science Center, San Antonio, TX) provided Rh-18 rhabdomyosarcoma (RRID:CVCL_1659). Pooled donor human umbilical vein endothelial cells (HUVEC, Lonza, cat. CC-2519) and human mesenchymal stem cells (hMSC, Lonza, cat. PT-2501) were purchased from Lonza (Walkersville, MD).
Cell Culture. […]

Cn1ncnc1[C@H]1c2n[nH]c(=O)c3cc(F)cc(c23)N[C@@H]1c1ccc(F)cc1 + CCN1C(C(=O)NC23CCC(C(=O)O)(CC2)CC3)C(c2cccc(Cl)c2F)C2(C(=O)Nc3cc(Cl)ccc32)C12CCCCC2
6.16 nM: IC50 (second compound 0.03 µM)
< 0.316 nM: IC50 (second compound 0.3 µM) | IC50 (second compound 0.949 µM) | IC50 (second compound 3 µM)
inactive: viability, T/C (second compound 0.00949 µM, first compound 0.000316 µM) 112% | viability, T/C (second compound 0.00949 µM, first compound 0.001 µM) 104% | viability, T/C (second compound 0.00949 µM, first compound 0.00316 µM) 96.2% | viability, T/C (second compound 0.00949 µM, first compound 0.01 µM) 78.7% | viability, T/C (second compound 0.00949 µM, first compound 0.0316 µM) 14.9% | viability, T/C (second compound 0.03 µM, first compound 0.000316 µM) 104% | viability, T/C (second compound 0.03 µM, first compound 0.001 µM) 98.2% | viability, T/C (second compound 0.03 µM, first compound 0.00316 µM) 87.5% | viability, T/C (second compound 0.03 µM, first compound 0.01 µM) 22.8% | viability, T/C (second compound 0.0949 µM, first compound 0.000316 µM) 90.8% | viability, T/C (second compound 0.0949 µM, first compound 0.001 µM) 66.6% | viability, T/C (second compound 0.0949 µM, first compound 0.00316 µM) 23.7% | viability, T/C (second compound 0.3 µM, first compound 0.000316 µM) 15.8% | viability, T/C (second compound 3 µM, first compound 0.000316 µM) 10.9%
1.56 nM: IC50 (second compound 0.0949 µM)
16.8 nM: IC50 (second compound 0.00949 µM)
active: viability, T/C (second compound 0.00949 µM, first compound 0.1 µM) 7.79% | viability, T/C (second compound 0.03 µM, first compound 0.0316 µM) 6.44% | viability, T/C (second compound 0.03 µM, first compound 0.1 µM) 4.46% | viability, T/C (second compound 0.0949 µM, first compound 0.01 µM) 7.28% | viability, T/C (second compound 0.0949 µM, first compound 0.0316 µM) 6.03% | viability, T/C (second compound 0.0949 µM, first compound 0.1 µM) 3.35% | viability, T/C (second compound 0.3 µM, first compound 0.001 µM) 9.59% | viability, T/C (second compound 0.3 µM, first compound 0.00316 µM) 5.54% | viability, T/C (second compound 0.3 µM, first compound 0.01 µM) 4.13% | viability, T/C (second compound 0.3 µM, first compound 0.0316 µM) 2.99% | viability, T/C (second compound 0.3 µM, first compound 0.1 µM) 2.63% | viability, T/C (second compound 0.949 µM, first compound 0.000316 µM) 3.8% | viability, T/C (second compound 0.949 µM, first compound 0.001 µM) 2.11% | viability, T/C (second compound 0.949 µM, first compound 0.00316 µM) 2.99% | viability, T/C (second compound 0.949 µM, first compound 0.01 µM) 1.27% | viability, T/C (second compound 0.949 µM, first compound 0.0316 µM) 1.77% | viability, T/C (second compound 0.949 µM, first compound 0.1 µM) 1.2% | viability, T/C (second compound 3 µM, first compound 0.001 µM) 1.49% | viability, T/C (second compound 3 µM, first compound 0.00316 µM) 2.04% | viability, T/C (second compound 3 µM, first compound 0.01 µM) 1.73% | viability, T/C (second compound 3 µM, first compound 0.0316 µM) 1.53% | viability, T/C (second compound 3 µM, first compound 0.1 µM) 1.16%
